# Numbers after ± are expanded uncertainties.
# Details: 101.33 kPa, Liquid
smiles,measurement,setting,value
CN(CCO)CCO [N-methyldiethanolamine],mass density,298.15 K,1038.22 ± 1.2 kg/m3
same,mass density,303.15 K,1034.49 ± 1.1 kg/m3
same,mass density,308.15 K,1030.75 ± 1.1 kg/m3
same,mass density,313.15 K,1026.99 ± 1.1 kg/m3
same,mass density,318.15 K,1023.25 ± 1 kg/m3
same,mass density,323.15 K,1019.47 ± 0.98 kg/m3
same,mass density,328.15 K,1015.64 ± 0.94 kg/m3
same,mass density,333.15 K,1011.8 ± 0.91 kg/m3
same,mass density,338.15 K,1007.92 ± 0.87 kg/m3

# Source: the NIST ThermoML archive (doi:10.1021/je800416y)
